Columns and labels:
Mus musculus [1] = assay: In vivo antitumor activity against murine sarcoma 180 cells at an optimal dose of 2 mg/kg.; format: functional
Mus musculus [2] = assay: In vivo antitumor activity against lymphocytic leukemia P388 in mice expressed as maximal increase in life span at an optimal dose of 2 mg/kg.; format: functional
HeLa = assay: In vitro antiproliferative activity against HeLa S3 cells.; format: functional, cell-based; conditions: Homo sapiens
Mus musculus [3] = assay: In vivo antitumor activity against lymphocytic leukemia P388 in mice expressed as maximal increase in life span at an optimal dose of 8 mg/kg.; format: functional
Mus musculus [4] = assay: In vivo antitumor activity against murine sarcoma 180 cells at an optimal dose of 4 mg/kg.; format: functional
Mus musculus [5] = assay: Antitumor activity against human Lu-65 tumor cells, at a dose of 5.3 mg/kg upon i.v. administration in nude mice; format: functional; conditions: route intravenous
Mus musculus [6] = assay: In vivo antitumor activity against murine sarcoma 180 cells at an optimal dose of 8 mg/kg.; format: functional
Mus musculus [7] = assay: In vivo antitumor activity against murine sarcoma 180 cells at an optimal dose of 16 mg/kg.; format: functional
Mus musculus [8] = assay: Antitumor activity against human Lu-65 tumor cells, at a dose of 12 mg/kg upon i.v. administration in nude mice; format: functional; conditions: route intravenous
Mus musculus [9] = assay: In vivo antitumor activity against lymphocytic leukemia P388 in mice expressed as maximal increase in life span at an optimal dose of 4 mg/kg.; format: functional
Mus musculus [10] = assay: Antitumor activity against human A-2780 tumor cells, at a dose of 12 mg/kg upon i.v. administration in nude mice; format: functional; conditions: route intravenous
Mus musculus [11] = assay: In vivo antitumor activity against lymphocytic leukemia P388 in mice expressed as maximal increase in life span at an optimal dose of 16 mg/kg.; format: functional
Mus musculus [12] = assay: Antitumor activity against human A-2780 tumor cells, at a dose of 5.3 mg/kg upon i.v. administration in nude mice; format: functional; conditions: route intravenous
Mus musculus [13] = assay: Antitumor activity against human HCT116 tumor cells, at a dose of 5.3 mg/kg upon i.v. administration in nude mice; format: functional; conditions: route intravenous
Mus musculus [14] = assay: Antitumor activity against human Lu-65 tumor cells, at a dose of 8 mg/kg upon i.v. administration in nude mice; format: functional; conditions: route intravenous
Mus musculus [15] = assay: Antitumor activity against human A-2780 tumor cells, at a dose of 8 mg/kg upon i.v. administration in nude mice; format: functional; conditions: route intravenous
Mus musculus [16] = assay: Antitumor activity against human HCT116 tumor cells, at a dose of 8 mg/kg upon i.v. administration in nude mice; format: functional; conditions: route intravenous

SMILES	IC50 (HeLa)	ILS at 8 mg/kg (Mus musculus [3])	T/C (Mus musculus [6])	further results
C/C1=C\[C@@H](O)C(=O)/C=C/C=Cc2csc(n2)[C@@H](C)N2C(=O)C[C@@]([C@@](C)(O)C(=O)SCc3oc(=O)oc3C)(CC1)[S+]2[O-] (some centres not stated)	–	–	–	T/C (Mus musculus [1]): 0.67; ILS at 2 mg/kg (Mus musculus [2]): 65%
C/C1=C\[C@@H](OC(=O)CNC(=O)CNC(=O)OCc2ccccc2)C(=O)/C=C/C=C/c2csc(n2)[C@@H](C)N2C(=O)C[C@@]([C@@](C)(O)C(=O)SCc3oc(=O)oc3C)(CC1)[S+]2[O-] (some centres not stated)	15 nM	64%	–	T/C (Mus musculus [4]): 0.61
COCCOCCOCC(=O)O[C@@H]1/C=C(\C)CC[C@]2([C@@](C)(O)C(=O)SCc3oc(=O)oc3C)CC(=O)N([C@H](C)c3nc(cs3)/C=C/C=C/C1=O)[S+]2[O-] (some centres not stated)	5.5 nM	–	0.39	T/C (Mus musculus [5]): 0.35; ILS at 2 mg/kg (Mus musculus [2]): 54%
C/C1=C\[C@@H](OC(=O)CNC(=O)CCNC(=O)OC(C)(C)C)C(=O)/C=C/C=C/c2csc(n2)[C@@H](C)N2C(=O)C[C@@]([C@@](C)(O)C(=O)SCc3oc(=O)oc3C)(CC1)[S+]2[O-] (some centres not stated)	12 nM	70%	–	T/C (Mus musculus [7]): 0.23
C/C1=C\[C@@H](OC(=O)CNC(=O)CNC(=O)OC(C)(C)C)C(=O)/C=C/C=C/c2csc(n2)[C@@H](C)N2C(=O)C[C@@]([C@@](C)(O)C(=O)SCc3oc(=O)oc3C)(CC1)[S+]2[O-] (some centres not stated)	14 nM	–	0.39	T/C (Mus musculus [8]): 0.33; ILS at 4 mg/kg (Mus musculus [9]): 39%; T/C (Mus musculus [10]): 0.51
C/C1=C\[C@@H](OC(=O)CNC(=O)OCc2ccccc2)C(=O)/C=C/C=C/c2csc(n2)[C@@H](C)N2C(=O)C[C@@]([C@@](C)(O)C(=O)SCc3oc(=O)oc3C)(CC1)[S+]2[O-] (some centres not stated)	4 nM	98%	–	T/C (Mus musculus [7]): 0.36
COCCOCCOCCOCCOCCOCC(=O)O[C@@H]1/C=C(\C)CC[C@]2([C@@](C)(O)C(=O)SCc3oc(=O)oc3C)CC(=O)N([C@H](C)c3nc(cs3)/C=C/C=C/C1=O)[S+]2[O-] (some centres not stated)	43 nM	–	0.58	–
C/C1=C\[C@@H](OC(=O)CNC(=O)CNC(=O)c2ccccc2)C(=O)/C=C/C=C/c2csc(n2)[C@@H](C)N2C(=O)C[C@@]([C@@](C)(O)C(=O)SCc3oc(=O)oc3C)(CC1)[S+]2[O-] (some centres not stated)	32 nM	–	0.46	ILS at 16 mg/kg (Mus musculus [11]): 90%
C/C1=C\[C@@H](OC(=O)CCNC(=O)CCNC(=O)OCc2ccccc2)C(=O)/C=C/C=C\c2csc(n2)[C@H](C)NC(=O)C[C@@]2(CC1)[S+]([O-])SC(=O)[C@]2(C)O (some centres not stated)	61 nM	–	–	T/C (Mus musculus [7]): 0.58; ILS at 16 mg/kg (Mus musculus [11]): 62%
C/C1=C\[C@@H](OC(=O)CNC=O)C(=O)/C=C/C=C\c2csc(n2)[C@H](C)NC(=O)C[C@@]2(CC1)[S+]([O-])SC(=O)[C@]2(C)O (some centres not stated)	11 nM	56%	–	T/C (Mus musculus [5]): 0.43; T/C (Mus musculus [12]): 0.29; T/C (Mus musculus [13]): 0.62; T/C (Mus musculus [4]): 0.46
COCCOCCOCCOCCOCCOCC(=O)O[C@@H]1/C=C(\C)CC[C@]2(CC(=O)N[C@@H](C)c3nc(cs3)/C=C\C=C\C1=O)[S+]([O-])SC(=O)[C@]2(C)O (some centres not stated)	11 nM	–	0.3	T/C (Mus musculus [14]): 0.2
COCCOCCOCCOCC(=O)O[C@@H]1/C=C(\C)CC[C@]2(CC(=O)N[C@@H](C)c3nc(cs3)/C=C\C=C\C1=O)[S+]([O-])SC(=O)[C@]2(C)O (some centres not stated)	610 nM	–	–	T/C (Mus musculus [4]): 0.82
C/C1=C\[C@@H](OC(=O)COCCOCCO)C(=O)/C=C/C=C\c2csc(n2)[C@H](C)NC(=O)C[C@@]2(CC1)[S+]([O-])SC(=O)[C@]2(C)O (some centres not stated)	25 nM	–	–	T/C (Mus musculus [4]): 0.36
C/C1=C\[C@@H](OC(=O)CCNC(=O)CNC(=O)OCc2ccccc2)C(=O)/C=C/C=C\c2csc(n2)[C@H](C)NC(=O)C[C@@]2(CC1)[S+]([O-])SC(=O)[C@]2(C)O (some centres not stated)	150 nM	–	–	T/C (Mus musculus [7]): 0.69; ILS at 16 mg/kg (Mus musculus [11]): 71%
C/C1=C\[C@@H](OC(=O)CNC(=O)CNC(=O)c2ccccc2)C(=O)/C=C/C=C\c2csc(n2)[C@H](C)NC(=O)C[C@@]2(CC1)[S+]([O-])SC(=O)[C@]2(C)O (some centres not stated)	8.7 nM	78%	0.42	–
COCCOCCOCCOCCOCC(=O)O[C@@H]1/C=C(\C)CC[C@]2(CC(=O)N[C@@H](C)c3nc(cs3)/C=C\C=C\C1=O)[S+]([O-])SC(=O)[C@]2(C)O (some centres not stated)	240 nM	–	0.51	–
COCCOCC(=O)OCCOCCOCC(=O)O[C@@H]1/C=C(\C)CC[C@]2(CC(=O)N[C@@H](C)c3nc(cs3)/C=C\C=C\C1=O)[S+]([O-])SC(=O)[C@]2(C)O (some centres not stated)	–	–	0.12	–
C/C1=C\[C@@H](OC(=O)CNC(=O)[C@@H](C)NC(=O)OCc2ccccc2)C(=O)/C=C/C=C\c2csc(n2)[C@H](C)NC(=O)C[C@@]2(CC1)[S+]([O-])SC(=O)[C@]2(C)O (some centres not stated)	34 nM	58%	–	T/C (Mus musculus [7]): 0.61
COCCOCCOCC(=O)O[C@@H]1/C=C(\C)CC[C@]2(CC(=O)N[C@@H](C)c3nc(cs3)/C=C\C=C\C1=O)[S+]([O-])SC(=O)[C@]2(C)O (some centres not stated)	66 nM	–	–	T/C (Mus musculus [4]): 0.3
C/C1=C\[C@@H](OC(=O)CNC(=O)CN(C)C(=O)OCc2ccccc2)C(=O)/C=C/C=C\c2csc(n2)[C@H](C)NC(=O)C[C@@]2(CC1)[S+]([O-])SC(=O)[C@]2(C)O (some centres not stated)	67 nM	–	0.61	ILS at 4 mg/kg (Mus musculus [9]): 70%
C/C1=C\[C@@H](OC(=O)COCCOCCOCCOCCO)C(=O)/C=C/C=C\c2csc(n2)[C@H](C)NC(=O)C[C@@]2(CC1)[S+]([O-])SC(=O)[C@]2(C)O (some centres not stated)	–	–	0.18	–
C/C1=C\[C@@H](OC(=O)[C@@H](C)NC(=O)OCc2ccccc2)C(=O)/C=C/C=C\c2csc(n2)[C@H](C)NC(=O)C[C@@]2(CC1)[S+]([O-])SC(=O)[C@]2(C)O (some centres not stated)	45 nM	–	–	ILS at 4 mg/kg (Mus musculus [9]): 52%; T/C (Mus musculus [4]): 0.56
C/C1=C\[C@@H](OC(=O)CNC(=O)[C@H](NC(=O)OCc2ccccc2)C(C)C)C(=O)/C=C/C=C\c2csc(n2)[C@H](C)NC(=O)C[C@@]2(CC1)[S+]([O-])SC(=O)[C@]2(C)O (some centres not stated)	16 nM	67%	0.56	–
C/C1=C\[C@@H](OC(=O)CCNC(=O)OCc2ccccc2)C(=O)/C=C/C=C\c2csc(n2)[C@H](C)NC(=O)C[C@@]2(CC1)[S+]([O-])SC(=O)[C@]2(C)O (some centres not stated)	40 nM	–	–	ILS at 4 mg/kg (Mus musculus [9]): 53%; T/C (Mus musculus [4]): 0.79
C/C1=C\[C@@H](OC(=O)CNC(=O)CCNC(=O)OC(C)(C)C)C(=O)/C=C/C=C\c2csc(n2)[C@H](C)NC(=O)C[C@@]2(CC1)[S+]([O-])SC(=O)[C@]2(C)O (some centres not stated)	170 nM	67%	0.45	–
C/C1=C\[C@@H](OC(=O)CNC(=O)CNC(=O)OC(C)(C)C)C(=O)/C=C/C=C\c2csc(n2)[C@H](C)NC(=O)C[C@@]2(CC1)[S+]([O-])SC(=O)[C@]2(C)O (some centres not stated)	20 nM	46%	0.22	T/C (Mus musculus [14]): 0.43; T/C (Mus musculus [15]): 0.73; T/C (Mus musculus [16]): 0.7
C/C1=C\[C@@H](OC(=O)CNC(=O)CCNC(=O)OCc2ccccc2)C(=O)/C=C/C=C\c2csc(n2)[C@H](C)NC(=O)C[C@@]2(CC1)[S+]([O-])SC(=O)[C@]2(C)O (some centres not stated)	20 nM	–	0.55	ILS at 16 mg/kg (Mus musculus [11]): 76%
C/C1=C\[C@@H](OC(=O)CN(C)C(=O)OCc2ccccc2)C(=O)/C=C/C=C\c2csc(n2)[C@H](C)NC(=O)C[C@@]2(CC1)[S+]([O-])SC(=O)[C@]2(C)O (some centres not stated)	52 nM	–	0.74	ILS at 4 mg/kg (Mus musculus [9]): 48%
COCCOCCOCCOCCOCCOCCOCC(=O)O[C@@H]1/C=C(\C)CC[C@]2(CC(=O)N[C@@H](C)c3nc(cs3)/C=C\C=C\C1=O)[S+]([O-])SC(=O)[C@]2(C)O (some centres not stated)	210 nM	–	–	–
CC(=O)NCC(=O)O[C@@H]1/C=C(\C)CC[C@]2(CC(=O)N[C@@H](C)c3nc(cs3)/C=C\C=C\C1=O)[S+]([O-])SC(=O)[C@]2(C)O (some centres not stated)	13 nM	–	–	ILS at 4 mg/kg (Mus musculus [9]): 66%; T/C (Mus musculus [1]): 0.67
